Reference: patent US8461165B2, “2-Substituted phenyl-5,7-dihydrocarbyl-3,7-dihydropyrrolo[2,3-d] pyrimidin-4-one derivatives, the preparation and the pharmaceutical use thereof” (Yangtze River Pharmaceutical (Group) Co., Ltd, priority 2003, dated 2013)
Counter-ions that a name gives are not always drawn.

Assays:
male rabbit = test: penis erection experiment in conscious male rabbits; type: in vivo; conditions: for Length of rabbit penis: conscious rabbits, average of 3 rabbits
Method: (Bischoff E.; Schneider K, International Journal of Impotence Research, 2001, 13, 230 235)
The hydrochloride of 3,7-dihydropyrrolo[2,3-d]pyrimidin-4-one derivatives was dissolved into water, and injected to conscious-rabbits intravenously (i.v.) (0.1 mg-3 mg/kg). Erection was accessed by comparing the length of penis before and at 0, 30, 60, 90 and 120 minutes after intravenous administration of the above-mentioned agents.

male rats = test: effect of single administration on the coitus function of male rats; type: in vivo, rat; conditions: 24 mg/kg oral; for the latent period of straddle / the latent period of the coitus / times of straddle / times of the coitus: single administration, 20 min observation, average ± standard deviation
Method: After purchasing, the male rat and the estrogenized female rat were kept in the same cage for 2 days, and the male rat would acquire the sexual experiences. Then, the female rat was taken out of the cage, and the experiments began after the male rat stayed alone in a cage for 5 days. Each tested compound was orally administered in a dosage of 24 mg/kg, the positive group was administered with Sildenafil citrate (Viagra) in a dosage of 24 mg/kg, and the control group was administered with saline at the equal volume (0.1 ml/10 g). Fifty minutes after administration, the tested male rats were placed within a observation container (both the diameter and the height of the container were 24 cm), and the male rats adapted the new environment for 5 minutes. After that, two estrogenized female rats were placed into the container. The sexual behavior of the male rats in 20 minutes was observed under the non-interfering condition using Panasonic WVCP410/G monitor, the latent period of straddle, times of straddle, as well as the latent period of the coitus and times of the coitus. All the experiments were carried out at 21-24° C., and completed before 11:00 AM. The comparative results among the compounds of the invention, the blank and the positive control drug Sildenafil citrate were listed in Table 2.

[1] = target: phosphodiesterase 5 (PDE5) (Homo sapiens, UniProt O76074); test: inhibition of phosphodiesterase 5 (SPA technique); type: biochemical
Method: The bioactivity inhibiting phosphodiesterase 5 (PDE5) of compounds of formula I was measured cross the reference of methods (Hidaka H, et al Biochim. Biochim. Biophys. Acta, 1976, 429, 485; Kim D-K, et al., Bioorg. Med. Chem. 2001, 9, 3013). The inhibiting activity of PDE5 was determined using SPA technique and the method of chemical fluorescence. The method was as follows: firstly, the reaction time curve and the enzyme concentration curve of PDE5 reaction system were determined by Microplate Scintillation & Luminescence Counter (TopCount Counter), by which the optimal reaction condition was determined. Under the optimized conditions, the inhibition experiments on PDE5 were carried out.

mice = test: acute toxicity in mice; type: in vivo; conditions: single dose
Method: Furthermore, none of any obvious sign of adverse acute toxicity is shown for the compounds of this invention tested in rat and dog, both intravenously (i.v.) and orally (p.o.) at up to 3 mg/Kg, has shown. For the situation of mice, no deaths occurred after doses of up to 100 mg/Kg i.v. The LD50 for a single dose of compound I-HCl in mice is 2000 mg/kg.

man = conditions: cited from earlier work
[2] = 0 min after i.v. administration (0.1 mg-3 mg/kg)
[3] = 30 min after i.v. administration (0.1 mg-3 mg/kg)
[4] = 60 min after i.v. administration (0.1 mg-3 mg/kg)
[5] = 90 min after i.v. administration (0.1 mg-3 mg/kg)
[6] = 120 min after i.v. administration (0.1 mg-3 mg/kg)

SMILES | Length of rabbit penis (male rabbit; [2]) [mm] | Length of rabbit penis (male rabbit; [3]) [mm] | Length of rabbit penis (male rabbit; [4]) [mm] | Length of rabbit penis (male rabbit; [5]) [mm] | Length of rabbit penis (male rabbit; [6]) [mm] | the latent period of straddle (male rats) [min] | the latent period of the coitus (male rats) [min] | times of straddle (male rats) | times of the coitus (male rats) | also measured
CCCn1cc(C)c2c(=O)[nH]c(-c3cc(S(=O)(=O)N4CCN(CC)CC4)ccc3OCC)nc21.Cl.Cl [Compound 1-2HCl, 2-[2-ethoxyl-5-(4-ethylpiperazinyl-1-sulfonyl)phenyl]-5-methyl-7-n-propyl-3,7-dihydropyrrolo[2,3-d]pyrimidin-4-one dihydrochloride] | 1.3 | 3.0 | 2.0 | 1.0 | 1.0 |  |  |  |  | 
CCCn1cc(C)c2c(=O)[nH]c(-c3cc(S(=O)(=O)N4CCN(CC)CC4)ccc3OCC)nc21.Cl [Compound 1-HCl, 2-[2-ethoxyl-5-(4-ethylpiperazinyl-1-sulfonyl)phenyl]-5-methyl-7-n-propyl-3,7-dihydropyrrolo[2,3-d]pyrimidin-4-one monohydrochloride] | 8.3 | 5.7 | 5.3 | 2.0 | 1.3 | 2.6 ± 1.13 | 7.1 ± 5.62 | 7.6 ± 2.70 | 13.1 ± 8.77 | potential in treatment of functional erectile dysfunction (in words) (male rabbit; rabbit penis erection, i.v.): quick onset and prolonged effectiveness; effect on sexual function compared with Sildenafil citrate (male rats; both groups): stronger than that of the Sildenafil citrate group; times of the coitus compared with positive control group (male rats; versus Sildenafil citrate, p<0.05): much more than that of the positive control group; indexes of sexual function of the rats (in words) (male rats; versus saline): obviously enhanced; latent period of coitus (in words) (male rats; versus saline): remarkably shortened; latent period of straddle (in words) (male rats; versus saline): remarkably shortened; times of the coitus (in words) (male rats; versus saline): obviously increased; inhibiting rate on PDE5 ([1]; concentration 10^−8 mol/L): 65.62%; LD50 (mice): 2000 mg/kg
CCCn1cc(C)c2c(=O)[nH]c(-c3cc(S(=O)(=O)N4CCN(C)CC4)ccc3OCC)nc21.Cl [Compound 6-2HCl, 2-[2-ethoxyl-5-(4-methylpiperazinyl-1-sulfonyl)phenyl]-5-methyl-7-n-propyl-3,7-dihydropyrrolo[2,3-d]pyrimidin-4-one] | 0.0 | 5.3 | 2.7 | 1.7 | 0.0 |  |  |  |  | 
CCCn1cc(C)c2c(=O)[nH]c(-c3cc(S(=O)(=O)N4CCN(C)CC4)ccc3OCC)nc21.Cl [Compound 6-HCl, 2-[2-ethoxyl-5-(4-methylpiperazinyl-1-sulfonyl)phenyl]-5-methyl-7-n-propyl-3,7-dihydropyrrolo[2,3-d]pyrimidin-4-one] |  |  |  |  |  | 6.4 ± 3.07 | 8.8 ± 5.85 | 8.0 ± 3.93 | 9.0 ± 8.50 | latent period of coitus compared with positive control group (male rats; versus Sildenafil citrate): remarkably shorter than that of the positive control group; indexes of sexual function of the rats (in words) (male rats; versus saline): obviously enhanced
CCCn1cc(C)c2c(=O)[nH]c(-c3cc(S(=O)(=O)N4CCN(C(=O)OCC)CC4)ccc3OCC)nc21.Cl.Cl [Compound 8-2HCl, 2-[2-ethoxyl-5-(4-ethoxylcarbonylpiperazinyl-1-sulfonyl)phenyl]-5-methyl-7-n-propyl-3,7-dihydropyrrolo[2,3-d]pyrimidin-4-one] | 2.7 | 1.7 | 1.3 | 0.7 | 0.0 |  |  |  |  | 
CCCn1cc(C)c2c(=O)[nH]c(-c3cc(S(=O)(=O)N4CCN(Cc5ccccc5)CC4)ccc3OCC)nc21.Cl.Cl [Compound 19-2HCl, 2-[2-ethoxyl-5-(4-benzylpiperazinyl-1-sulfonyl)phenyl]-5-methyl-7-n-propyl-3,7-dihydropyrrolo[2,3-d]pyrimidin-4-one] | 1.7 | 4.0 | 4.3 | 4.0 | 0.0 |  |  |  |  | 
CCCc1nn(C)c2c(=O)[nH]c(-c3cc(S(=O)(=O)N4CCN(C)CC4)ccc3OCC)nc12 [Sildenafil citrate, reference compound] |  |  |  |  |  | 5.0 ± 4.74 | 8.2 ± 4.02 | 12.7 ± 7.18 | 8.2 ± 5.25 | 
CCCc1nn(C)c2c(=O)[nH]c(-c3cc(S(=O)(=O)N4CCN(C)CC4)ccc3OCC)nc12 [sildenafil, reference compound] |  |  |  |  |  |  |  |  |  | inhibition at 0.01 µM ([1]; read-out: inhibiting rate on PDE5): 31.7%; effective rates in treating male sexual organs erectile dysfunction (man): 80%
